Patent US20090234018A1, “Non-Standard Amino Acid Conjugates of Amphetamine and Processes for Making and Using the Same” (priority 2006, published 2009)
Like-named read-outs stand apart in the source and are kept apart here.

Assays:
[1] = Oral PK study of Lys-Amp, hArg-Amp, Orn-Amp and Cit-Amp (Example 9); conditions: rat; for % Tmax: relative to Lys-Amp
[2] = Intranasal PK study of d-amphetamine, hArg-Amp, Orn-Amp (Example 10); conditions: rat; for % Tmax: relative to d-amp
[3] = rat, oral; relative to hArg-Amp
[4] = Intravenous PK study of d-amphetamine, hArg-Amp, Orn-Amp (Example 11); conditions: rat, relative to d-amp
[5] = Average of 4 oral PK studies of Lys-Amp and hArg-Amp (Example 7, Table 3); conditions: average of 4 oral studies, n=20; relative to Lys-Amp
[6] = Oral gavage PK study of Lys-Amp and hArg-Amp, plasma d-amphetamine by ELISA (Example 7); conditions: rat, relative to Lys-Amp
[7] = PK of d-amphetamine after parenteral (intranasal, intravenous) administration of hArg-Amp (Example 1)
[8] = plasma d-amphetamine, given in minutes

| Molecule | Tmax compared to Lys-Amp [1] | Tmax [1, 8] | % Tmax [1] | Tmax [2, 8] | % Tmax [2] | % Tmax [3] | % Tmax [4] | % Tmax [5] | % Tmax [6] | release of amphetamine [7] | Cmax ([1]; plasma d-amphetamine) |
| --- | --- | --- | --- | --- | --- | --- | --- | --- | --- | --- | --- |
| 1-citrulline-d-amphetamine hydrochloride [Cit-Amp] | significantly shifted the Tmax | 15 m | 25% |  |  |  |  |  |  |  |  |
| C[C@H](N)Cc1ccccc1 [d-amp, d-amphetamine] |  |  |  | 15 m | 100% |  |  |  |  |  |  |
| C[C@@H](Cc1ccccc1)NC(=O)[C@@H](N)CCCCN=C(N)N.Cl.Cl [hArg-Amp, l-homoarginine-d-amphetamine dihydrochloride] |  |  | 200% |  | 1600% | 100% | 100% | 400% | 133% | < 50% |  |
| l-lysine-d-amphetamine [Lys-Amp, reference compound] |  |  | 100% |  |  |  |  | 100% | 100% |  | 59 ng/mL |
